The text below walks through data of patent US20240058308A1, “TREATMENT AND PREVENTION OF DRY MACULAR DEGENERATION” (The Regents of the University of Michigan, priority 2021, published 2024).

Data set [1] concerns primary human fetal RPE (hfRPE) culture. Nature of the data set: Autophagy induction by LC3 lipidation (LC3-II/LC3-I ratio) on Western blot. As to conditions: 24 hours exposure, vs vehicle (DMSO). It counts as cell-based. The protocol: (§1) Cell cultures were exposed to each putative autophagy inducer at a concentration indicated in Table 1 for 24 hours, lysed with 36 μL of SDS sample buffer with β-mercaptoethanol, with 15 μg of lysate loaded on a 4-15% gradient gel followed by transfer to a PVDF membrane. Blots were incubated with 1:1000 of LC3A/B antibody (Cell Signaling Technology; #4108s, RRID:AB_2137703) overnight. Quantifying LC3-II/LC3-I ratio is a well-accepted method for det 306 ermining autophagy induction [Ref. 44; incorporated by reference in its entirety], and this ratio was quantified in a non-saturated, linear range using the Azure c500 Imaging System (Azure Biosystems, Dublin, CA, USA) and a combination of AzureSpot and ImageJ software. The data in FIG. 2A are not normalized, whereas the data in FIGS. 2b and 1c are normalized to the average combined value of the vehicle and drug groups within each experimental repeat. The extreme pigmentation of human fetal cultures, combined with the destruction of the LC3 epitope with melanin bleaching protocols, makes detection of LC3 by microscopy in hfRPE difficult. A range of LC3 staining and puncta quantification protocols specifically adapted to pigmented hfRPE culture were employed [Ref. 43; incorporated by reference in its entirety]. At least five fields of view were randomly chosen and analyzed per experimental replicate for LC3 immunocytochemistry.
To test for autophagy induction, lipidation of the core autophagy protein LC3 was measured by mobility shift on Western blots 24 hours after each compound was added to hfRPE cultures [Ref. 44; incorporated by reference in its entirety]. […] Of the more than 30 putative autophagy inducers tested, only five produced an increased ratio of LC3-II/LC3-I, consistent with increased autophagy (FIG. 2a).
Autophagy induction was measured by LC3-II/LC3-I Ratios on Western Blot (standard method for autophagy induction) (FIG. 18A-C). Drugs were applied to primary human RPE culture for 24 hours.
A general note: In western blotting, separated proteins are transferred to a membrane and probed.

The test system is the same in data set [2]. Nature of the data set: Autophagy induction by LC3 puncta formation (immunocytochemistry). Type of data set: cell-based. As to conditions: 24 hours exposure. The protocol: as §1
Autophagy induction was confirmed by assaying the formation of LC3-positive puncta (autophagosomes) by immunocytochemistry [Ref. 44; incorporated by reference in its entirety]. Puncta formation was quantified in automated/unbiased fashion using a customized macro in the Fiji/ImageJ platform [Ref. 43; incorporated by reference in its entirety].
Autophagy induction was measured by LC3 puncta on immunocytochemistry (standard method for autophagy induction) (FIG. 19). Drugs applied to primary human RPE culture for 24 hours.

Data set [3] shares this test system. Nature of the data set: Autophagy flux assay with NH4Cl lysosomal alkalinization. As to conditions: inducer 22.5 hours, then 25 mM NH4Cl for final 1.5 hours. It counts as cell-based.
Experimental: Cultures were exposed to compounds or vehicle (DMSO) for 24 hours. […] (C) Autophagy flux assays. After application of inducers or vehicle (DMSO) for 22.5 hours, 25 mM of NH4Cl, a lysosomal alkalizing agent, or H2O were added for a final 1.5 hours to inhibit autophagy flux.
Increases in both LC3 lipidation and autophagosome formation could result from downstream blockade of autophagy at the lysosome.
Data set [4] concerns primary hfRPE culture. Nature of the data set: Trans-epithelial electrical resistance (TEER), tight-junction integrity. Type of data set: cell-based. The protocol:
(§2) TEER and cell death were measured [Ref 51; incorporated by reference in its entirety]. For cell death assays, maximum possible LDH release per Transwell was measured immediately after 2 μL of the final experimental supernate was taken. The Transwell and supernate was then treated with 0.2% Triton X-100 for 15 minutes at 37° C. followed by collection of an additional 2 μL of supernate. Each experimental LDH release value was first normalized to total LDH release from the vehicle condition. Additionally, all TEER and LDH release measurements were normalized to the vehicle group at the zero-hour timepoint.
(§3) To evaluate the safety of D4476 and FLBZ, trans-epithelial electrical resistance (TEER) was measured, a measure of tight-junction integrity, in RPE cultures after prolonged exposure to each compound. As well-formed tight-junctions require myriad cell processes to be optimally coordinated, assessing TEER provides an easily measurable, ongoing, and noninvasive marker for general RPE cell health [Ref. 45; incorporated by reference in its entirety]. […] Lactate dehydrogenase (LDH) release, a combined marker of necrotic and late-stage apoptotic cell death [Refs. 47,48; incorporated by reference in their entireties], was reduced compared to vehicle for all four verified RPE autophagy inducers (FIG. 3b). Exposure of RPE cultures to the oxidant tert-butyl hydroperoxide confirmed the ability of the assay to detect cell death (FIG. 10).
Transepithelial Electrical Resistance (TEER) was tested (FIGS. 16 and 17). TEER is a sensitive measure of toxicity (lower the TEER, the more toxic the drug is). Drugs were added daily and measurements made daily for at least 4-8 days.

The test system of data set [5] is primary hfRPE culture.
Experimental: (§4) Phagocytosis assays using bovine outer segments was performed using the “pulse-only” method [Ref 43; incorporated by reference in its entirety]. Values at the zero-hour timepoint were used for normalization.
The subject of data set [6] is primary hfRPE culture. The experiment in a line: Cytotoxicity by LDH release. It counts as cell-based, human. As to conditions: 24 hours exposure. The protocol:
as §2
as §3, with “Exposure of RPE cultures to the oxidant tert-butyl hydroperoxide confirmed the ability of the assay to detect cell death (FIG. 10).” left out

The test system of data set [7] is primary hfRPE culture. Nature of the data set: Outer segment (OS) phagocytosis efficiency (rhodopsin disappearance). As to conditions: bovine outer segments, pulse-only method.
Experimental: as §4
Data set [8] concerns primary hfRPE culture. The experiment in a line: Undigestible autofluorescent material (UAM) accumulation, elimination and granule size after oxOS feedings. Type of data set: cell-based, human. As to conditions: fed daily with oxOS over a month; FLBZ 12 μM, Torin 1 μM; vs vehicle.
In another data set the test system is RPE of mouse eye. The experiment in a line: Intravitreal injection in mouse eyes, autophagy by LC3II/LC3I ratio of lysates. Type of data set: in vivo. As to conditions: four concentrations up to 500 uM, multiple timepoints, DMSO in other eye. The method, then: Experiments were conducted during development of embodiments herein to assay for autophagy in the mouse eye. Experiments were conducted to measure autophagy by giving an intraperitoneal injection of leupeptin, followed by assaying for LC3 puncta in an RPE flatmount of a GFP-LC3 mouse. Background from GFP-LC3 debris deposited on the RPE when the retina was peeled off for the flat mount prevented signal detection. A biochemical assay was then employed for autophagy induction, measuring an increase in the lipidation of the autophagy core protein LC3 (lipidated LC3=LC3-II, unlipidated LC3=LC3-I, so higher LC3-II/LC3-I ratio indicates autophagy induction). Sufficient signal as obtained. […] Harvesting techniques were also optimized for collecting RPE from mouse eyes.
Experiments were conducted during development of embodiments herein to establish a positive control for autophagy induction. […] Autophagy induction was measured at 4 different concentrations of Torin (500 nm, 5 um, 50 um, 500 um) and at 5 different timepoints after injection (1 day, 3 days, 7 days, 14 days, 28 days). […] Nevertheless, the ability of intravitreal injections of FLBZ to induce autophagy in the RPE was assessed. In preparation for injecting FLBZ intravitreally into mice, solubility assays were performed and the maximum amount of FLBZ that can be injected without it crashing out of solution in the vitreous was determined. […]

A further data set deals with RPE from mouse eyecups. Nature of the data set: Ex vivo mouse eyecup autophagy induction (LC3II/LC3I ratio). As to conditions: mouse RPE/choroid eyecup, 24 hours; Torin 1-5 uM, FLBZ 12-60 uM. The method, then: FIG. 14. Effect of autophagy positive control Torin on RPE from mouse eyecups (DMSO as control). […] Mouse eyes were enucleated, the anterior segment vitreous, and retina were removed, leaving an eyecup with RPE/choroid exposed. […] RPE/Choroid eyecup was treated with 1 uM Torin1 in our previously established RPE cell culture media for 24 hours. n=4.
FIG. 15. Effect of Flubendazole on RPE from Mouse Eyecups (DMSO as control). Conditions with and without ammonium chloride (NH4Cl) help establish high autophagy flux rates. If true autophagy flux is happening, the LC3II/LC3I ratio should increase further upon addition of NH4Cl, as is the case here. DMSO− and FLBZ−, n=6, FLBZ+ and DMSO+ n=5. Flubendazole tested at 60 uM, lysates collected after 24 hours. Induction did occur in eyecups.
Given the inconsistent results with detecting autophagy induction using intravitreal injection of the positive control, Torin, experiments were conducted to determine whether the lack of responsiveness to intravitreal injections was a drug access issue or whether it was a species or animal vs. culture difference. Additional experiments utilized freshly isolated mouse eyecups with the retina removed to determine whether Torin (and FLBZ) induce autophagy in this context. […] The use of ammonium chloride in these experiments blocks lysosomal degradation.

The nature of data set [9]: Solubility assays of DMSO stock mixed with PBS (simulating the vitreous). It counts as physicochemical. As to conditions: Torin 1 mM stock mixed 1:1 with PBS; flubendazole 3 mM stock. The method, then: Experiments were conducted during development of embodiments herein to establish a positive control for autophagy induction. The direct mTOR inhibitor Torin1 was selected over rapamycin/sirolimus as the positive control, based on the capacity of Torin1 to induce autophagy in primary culture more strongly and more consistently than rapamycin. The experimental set-up involved injecting one eye with Torin and the other eye with the DMSO vehicle. Autophagy induction was measured at 4 different concentrations of Torin (500 nm, 5 um, 50 um, 500 um) and at 5 different timepoints after injection (1 day, 3 days, 7 days, 14 days, 28 days). […] Nevertheless, the ability of intravitreal injections of FLBZ to induce autophagy in the RPE was assessed. In preparation for injecting FLBZ intravitreally into mice, solubility assays were performed and the maximum amount of FLBZ that can be injected without it crashing out of solution in the vitreous was determined. […] This helped inform maximal concentrations of flubendazole that could be injected intravitreally. Four different concentrations were injected, up to the maximum solubility of FLBZ, and autophagy induction was assayed over a timeframe ranging from 1 week to 4 weeks after injection.

The mark [10] stands for this setting: prolonged exposure, drug or vehicle (DMSO) replaced daily.

The structures appear in SMILES notation. Like-named read-outs stand apart in the source and are kept apart here.

As for `O=C(NCC1(N2CCN(c3ccccc3)CC2)CCOCC1)c1cccnc1Sc1ccccc1` [JNJ, JNJ-47965567], the “LC3-II/LC3-I ratio (autophagy induction)” value in data set [1] was “Induction of autophagy”.

For `O=C1NC(=O)/C(=C/c2ccc3nccc(-c4ccncc4)c3c2)S1` [GSK, GSK 1059615], the “LC3-II/LC3-I ratio (autophagy induction)” value in data set [1] is on record as “upregulate autophagy”. Besides, in data set [2], the “LC3 puncta formation (autophagy induction)” value (“LC3 puncta formation” for short) was “induced autophagy”. Further, the “Autophagy flux: LC3-II/LC3-I ratio after NH4Cl” value in data set [3] is on record as “induces autophagy flux”. The “TEER (tight-junction integrity)” value in the data set on primary hfRPE culture [4] (setting [10]) is reported as “dramatically reduced TEER”. Further, in the data set with primary hfRPE culture [5], the “OS phagocytosis efficiency / OS degradative capacity” value is “reduces phagocytosis efficiency”.

Take `CCCCc1oc2ccccc2c1C(=O)c1cc(I)c(OCCN(CC)CC)c(I)c1` [Amiodarone]: in data set [1], the “LC3-II/LC3-I ratio (autophagy induction)” value is recorded as “Induction of autophagy”.

With `COc1cc2c(Oc3ccc4[nH]c(C)cc4c3F)ccnc2cc1OCC1(N)CC1` [anlotinib], the “LC3-II/LC3-I ratio (autophagy induction)” value in [1] is “evidence for autophagy induction”. In addition, the “LC3 puncta formation” value in data set [2] was “confirming autophagy induction”. In addition, in the data set with primary hfRPE culture [4], the “TEER (toxicity), Example 3” value is reported as “No toxicity is observed”.

For the molecule `N#CC1(c2ccc(NC(=O)c3cccnc3NCc3ccncc3)cc2)CCCC1` [apatinib], in [1], the “LC3-II/LC3-I ratio (autophagy induction)” value is reported as “evidence for autophagy induction”. The “LC3 puncta formation” value in data set [2] is listed as “confirming autophagy induction”. Besides, in the data set with primary hfRPE culture [4], the “TEER (toxicity), Example 3” value is listed as “No toxicity is observed”.

For `CC(C)(C)OO` [tBHP, tert-butyl hydroperoxide], the “LDH release after oxidant exposure (assay validation)” value in the data set on primary hfRPE culture [6] is recorded as “marked increase in LDH release”.

For the molecule `CC(C)(Sc1ccc(CCN(CCCCC2CCCCC2)C(=O)NC2CCCCC2)cc1)C(=O)O` [GW7647], the “LC3-II/LC3-I ratio (autophagy induction)” value in data set [1] is “Induction of autophagy”.

Regarding `NC(=O)c1ccc(-c2nc(-c3ccc4c(c3)OCCO4)c(-c3ccccn3)[nH]2)cc1` [D4476], the “LC3-II/LC3-I ratio (autophagy induction)” value in data set [1] was “Induction of autophagy”. For the same molecule, in data set [2], the “LC3 puncta formation” value is reported as “induced autophagy”. For the same molecule, in data set [3], the “Autophagy flux: LC3-II/LC3-I ratio after NH4Cl” value was “induces autophagy flux”. In addition, the “TEER (tight-junction integrity)” value in the data set with primary hfRPE culture [4] (setting [10]) was “more modest impact”. Also, the “OS phagocytosis efficiency / OS degradative capacity” value in the data set on primary hfRPE culture [7] is listed as “no effect on OS degradative capacity”.

On to `CCC(=O)N1CCN(c2ccc(-n3c(=O)ccc4cnc5ccc(-c6cnc7ccccc7c6)cc5c43)cc2C(F)(F)F)CC1` [Torin, Torin1], for which the “LC3-II/LC3-I ratio (autophagy induction)” value in data set [1] is listed as “upregulate autophagy”. Further, the “LC3 puncta formation” value in data set [2] is “induced autophagy”. The “Autophagy flux: LC3-II/LC3-I ratio after NH4Cl” value in data set [3] was “induces autophagy flux”. Moreover, in the data set with primary hfRPE culture [4], the “TEER (tight-junction integrity)” value is recorded as “dramatically reduced TEER”. Moreover, the “UAM accumulation, drug fed concurrently with oxOS” value in the data set with primary hfRPE culture [8] was “more UAM accumulation”. The “Autophagy induction in RPE after intravitreal injection (LC3II/LC3I ratio)” value in the data set with RPE of mouse eye was “No concentration or time after injection provided convincing evidence for replicable autophagy induction”. Moreover, the “Autophagy induction in eyecups (LC3II/LC3I ratio)” value with RPE from mouse eyecups was “induces autophagy well”. Moreover, the “Precipitation of DMSO stock solution when mixed with PBS” value in data set [9] is “did not crash out”. The “OS phagocytosis efficiency / OS degradative capacity” value in the data set on primary hfRPE culture [5] was “reduces phagocytosis efficiency”.

For the molecule `CCN(CC)CCNC(=O)c1c(C)[nH]c(/C=C2\C(=O)Nc3ccc(F)cc32)c1C` [sunitinib], the “TEER (toxicity), Example 3” value in the data set on primary hfRPE culture [4] was “No toxicity is observed”.
